Source: ChEMBL document CHEMBL1240479, “Exploring benzcyclo derivatives as potent aromatase inhibitors using ligand-based modeling studies” (Eur J Med Chem, 2010)

Biological target: T1, Aromatase (Homo sapiens, UniProt P11511)
T1 sequence (P11511 whole entry): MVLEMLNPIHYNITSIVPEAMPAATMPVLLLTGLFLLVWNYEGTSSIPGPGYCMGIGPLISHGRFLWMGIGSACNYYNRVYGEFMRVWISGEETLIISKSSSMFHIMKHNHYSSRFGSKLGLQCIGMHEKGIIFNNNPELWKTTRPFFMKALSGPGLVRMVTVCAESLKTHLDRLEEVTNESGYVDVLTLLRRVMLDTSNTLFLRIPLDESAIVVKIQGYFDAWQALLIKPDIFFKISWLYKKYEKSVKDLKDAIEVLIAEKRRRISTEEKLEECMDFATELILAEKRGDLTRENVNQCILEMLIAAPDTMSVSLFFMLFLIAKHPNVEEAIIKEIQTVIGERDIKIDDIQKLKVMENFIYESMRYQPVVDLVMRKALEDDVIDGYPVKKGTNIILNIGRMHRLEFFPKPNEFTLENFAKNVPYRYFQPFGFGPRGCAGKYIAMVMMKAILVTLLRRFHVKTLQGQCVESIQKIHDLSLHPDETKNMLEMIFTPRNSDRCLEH
Test: Inhibition of aromatase

Row | IC50 | Compound
1 | 3.96 µM | Brc1ccc2c(c1)CC/C2=C/c1ccncc1
2 | 3.4 µM | Brc1ccc2c(c1)CCC2=Cc1ccncc1
3 | 3.68 µM | C(=C(c1ccccc1)c1ccccc1)c1cccnc1
